Measured values taken from patent US12721906B2, “Kidney targeted delivery of drugs” (The Brigham and Women's Hospital, Inc., priority 2020, dated 2026).

Experiments:
megalin [1] = target: T1, megalin (Homo sapiens, UniProt P98164); assay: Uptake of LC-NPs by HK-2 cells after cilastatin or megalin siRNA; type: cell-based; settings: in vitro
T1 construct: effective knockdown of megalin expression in HK-2 cells was performed using siRNA directed against the megalin gene; host or cells: HK-2 human kidney proximal tubular epithelial cells
From the text: FIG. 4G-FIG. 4I. […] FIG. 4H: LC-NPs underwent lower uptake by HK-2 cells treated with cilastatin than vehicle (DPBS)-treated cells. […] Values are means±SD. means±SD. **P<0.01, and ***P<0.001 and ns: not significant as calculated by two-tailed Student's t-test.

megalin [2] = target: megalin (Mus musculus, UniProt A2ARV4)
Experimental: Female C57BL/6 mice were divided into two groups. The first group (n=4) was treated subcutaneously with 100 mg/kg Cilastatin sodium salt (>98%, Sigma Aldrich, USA) once daily for 4 days, and the second group (n=3) was treated subcutaneously with DPBS for 4 days. On the day of the last treatment, the LC-NP was injected to the mice. 1 day post injection the mice were euthanized and perfused with DPBS, and the kidneys were harvested and imaged.
Without being bound by any particular theory, it was hypothesized that the accumulation of LC-NP in the PTECs of the kidney is dependent on its binding to megalin. To test this hypothesis, the mice were treated with cilastatin or vehicle (DPBS) for 4 days prior to injection of LC-NP. Cilastatin, an inhibitor of renal dehydropeptidase-I (DHP-I), blocks megalin-mediated uptake in the kidney through competitive inhibition^33. 24 hours post-injection of LC-NP, the mice were euthanized and the major organs were harvested for imaging. […] Next, the specific effect of cilastatin on the binding of LC-NPs to PTECs was examined by treating HK-2 human PTECs in vitro directly with LC-NPs and cilastatin.

megalin (Mus musculus, UniProt A2ARV4), sequence (A2ARV4 26-4660): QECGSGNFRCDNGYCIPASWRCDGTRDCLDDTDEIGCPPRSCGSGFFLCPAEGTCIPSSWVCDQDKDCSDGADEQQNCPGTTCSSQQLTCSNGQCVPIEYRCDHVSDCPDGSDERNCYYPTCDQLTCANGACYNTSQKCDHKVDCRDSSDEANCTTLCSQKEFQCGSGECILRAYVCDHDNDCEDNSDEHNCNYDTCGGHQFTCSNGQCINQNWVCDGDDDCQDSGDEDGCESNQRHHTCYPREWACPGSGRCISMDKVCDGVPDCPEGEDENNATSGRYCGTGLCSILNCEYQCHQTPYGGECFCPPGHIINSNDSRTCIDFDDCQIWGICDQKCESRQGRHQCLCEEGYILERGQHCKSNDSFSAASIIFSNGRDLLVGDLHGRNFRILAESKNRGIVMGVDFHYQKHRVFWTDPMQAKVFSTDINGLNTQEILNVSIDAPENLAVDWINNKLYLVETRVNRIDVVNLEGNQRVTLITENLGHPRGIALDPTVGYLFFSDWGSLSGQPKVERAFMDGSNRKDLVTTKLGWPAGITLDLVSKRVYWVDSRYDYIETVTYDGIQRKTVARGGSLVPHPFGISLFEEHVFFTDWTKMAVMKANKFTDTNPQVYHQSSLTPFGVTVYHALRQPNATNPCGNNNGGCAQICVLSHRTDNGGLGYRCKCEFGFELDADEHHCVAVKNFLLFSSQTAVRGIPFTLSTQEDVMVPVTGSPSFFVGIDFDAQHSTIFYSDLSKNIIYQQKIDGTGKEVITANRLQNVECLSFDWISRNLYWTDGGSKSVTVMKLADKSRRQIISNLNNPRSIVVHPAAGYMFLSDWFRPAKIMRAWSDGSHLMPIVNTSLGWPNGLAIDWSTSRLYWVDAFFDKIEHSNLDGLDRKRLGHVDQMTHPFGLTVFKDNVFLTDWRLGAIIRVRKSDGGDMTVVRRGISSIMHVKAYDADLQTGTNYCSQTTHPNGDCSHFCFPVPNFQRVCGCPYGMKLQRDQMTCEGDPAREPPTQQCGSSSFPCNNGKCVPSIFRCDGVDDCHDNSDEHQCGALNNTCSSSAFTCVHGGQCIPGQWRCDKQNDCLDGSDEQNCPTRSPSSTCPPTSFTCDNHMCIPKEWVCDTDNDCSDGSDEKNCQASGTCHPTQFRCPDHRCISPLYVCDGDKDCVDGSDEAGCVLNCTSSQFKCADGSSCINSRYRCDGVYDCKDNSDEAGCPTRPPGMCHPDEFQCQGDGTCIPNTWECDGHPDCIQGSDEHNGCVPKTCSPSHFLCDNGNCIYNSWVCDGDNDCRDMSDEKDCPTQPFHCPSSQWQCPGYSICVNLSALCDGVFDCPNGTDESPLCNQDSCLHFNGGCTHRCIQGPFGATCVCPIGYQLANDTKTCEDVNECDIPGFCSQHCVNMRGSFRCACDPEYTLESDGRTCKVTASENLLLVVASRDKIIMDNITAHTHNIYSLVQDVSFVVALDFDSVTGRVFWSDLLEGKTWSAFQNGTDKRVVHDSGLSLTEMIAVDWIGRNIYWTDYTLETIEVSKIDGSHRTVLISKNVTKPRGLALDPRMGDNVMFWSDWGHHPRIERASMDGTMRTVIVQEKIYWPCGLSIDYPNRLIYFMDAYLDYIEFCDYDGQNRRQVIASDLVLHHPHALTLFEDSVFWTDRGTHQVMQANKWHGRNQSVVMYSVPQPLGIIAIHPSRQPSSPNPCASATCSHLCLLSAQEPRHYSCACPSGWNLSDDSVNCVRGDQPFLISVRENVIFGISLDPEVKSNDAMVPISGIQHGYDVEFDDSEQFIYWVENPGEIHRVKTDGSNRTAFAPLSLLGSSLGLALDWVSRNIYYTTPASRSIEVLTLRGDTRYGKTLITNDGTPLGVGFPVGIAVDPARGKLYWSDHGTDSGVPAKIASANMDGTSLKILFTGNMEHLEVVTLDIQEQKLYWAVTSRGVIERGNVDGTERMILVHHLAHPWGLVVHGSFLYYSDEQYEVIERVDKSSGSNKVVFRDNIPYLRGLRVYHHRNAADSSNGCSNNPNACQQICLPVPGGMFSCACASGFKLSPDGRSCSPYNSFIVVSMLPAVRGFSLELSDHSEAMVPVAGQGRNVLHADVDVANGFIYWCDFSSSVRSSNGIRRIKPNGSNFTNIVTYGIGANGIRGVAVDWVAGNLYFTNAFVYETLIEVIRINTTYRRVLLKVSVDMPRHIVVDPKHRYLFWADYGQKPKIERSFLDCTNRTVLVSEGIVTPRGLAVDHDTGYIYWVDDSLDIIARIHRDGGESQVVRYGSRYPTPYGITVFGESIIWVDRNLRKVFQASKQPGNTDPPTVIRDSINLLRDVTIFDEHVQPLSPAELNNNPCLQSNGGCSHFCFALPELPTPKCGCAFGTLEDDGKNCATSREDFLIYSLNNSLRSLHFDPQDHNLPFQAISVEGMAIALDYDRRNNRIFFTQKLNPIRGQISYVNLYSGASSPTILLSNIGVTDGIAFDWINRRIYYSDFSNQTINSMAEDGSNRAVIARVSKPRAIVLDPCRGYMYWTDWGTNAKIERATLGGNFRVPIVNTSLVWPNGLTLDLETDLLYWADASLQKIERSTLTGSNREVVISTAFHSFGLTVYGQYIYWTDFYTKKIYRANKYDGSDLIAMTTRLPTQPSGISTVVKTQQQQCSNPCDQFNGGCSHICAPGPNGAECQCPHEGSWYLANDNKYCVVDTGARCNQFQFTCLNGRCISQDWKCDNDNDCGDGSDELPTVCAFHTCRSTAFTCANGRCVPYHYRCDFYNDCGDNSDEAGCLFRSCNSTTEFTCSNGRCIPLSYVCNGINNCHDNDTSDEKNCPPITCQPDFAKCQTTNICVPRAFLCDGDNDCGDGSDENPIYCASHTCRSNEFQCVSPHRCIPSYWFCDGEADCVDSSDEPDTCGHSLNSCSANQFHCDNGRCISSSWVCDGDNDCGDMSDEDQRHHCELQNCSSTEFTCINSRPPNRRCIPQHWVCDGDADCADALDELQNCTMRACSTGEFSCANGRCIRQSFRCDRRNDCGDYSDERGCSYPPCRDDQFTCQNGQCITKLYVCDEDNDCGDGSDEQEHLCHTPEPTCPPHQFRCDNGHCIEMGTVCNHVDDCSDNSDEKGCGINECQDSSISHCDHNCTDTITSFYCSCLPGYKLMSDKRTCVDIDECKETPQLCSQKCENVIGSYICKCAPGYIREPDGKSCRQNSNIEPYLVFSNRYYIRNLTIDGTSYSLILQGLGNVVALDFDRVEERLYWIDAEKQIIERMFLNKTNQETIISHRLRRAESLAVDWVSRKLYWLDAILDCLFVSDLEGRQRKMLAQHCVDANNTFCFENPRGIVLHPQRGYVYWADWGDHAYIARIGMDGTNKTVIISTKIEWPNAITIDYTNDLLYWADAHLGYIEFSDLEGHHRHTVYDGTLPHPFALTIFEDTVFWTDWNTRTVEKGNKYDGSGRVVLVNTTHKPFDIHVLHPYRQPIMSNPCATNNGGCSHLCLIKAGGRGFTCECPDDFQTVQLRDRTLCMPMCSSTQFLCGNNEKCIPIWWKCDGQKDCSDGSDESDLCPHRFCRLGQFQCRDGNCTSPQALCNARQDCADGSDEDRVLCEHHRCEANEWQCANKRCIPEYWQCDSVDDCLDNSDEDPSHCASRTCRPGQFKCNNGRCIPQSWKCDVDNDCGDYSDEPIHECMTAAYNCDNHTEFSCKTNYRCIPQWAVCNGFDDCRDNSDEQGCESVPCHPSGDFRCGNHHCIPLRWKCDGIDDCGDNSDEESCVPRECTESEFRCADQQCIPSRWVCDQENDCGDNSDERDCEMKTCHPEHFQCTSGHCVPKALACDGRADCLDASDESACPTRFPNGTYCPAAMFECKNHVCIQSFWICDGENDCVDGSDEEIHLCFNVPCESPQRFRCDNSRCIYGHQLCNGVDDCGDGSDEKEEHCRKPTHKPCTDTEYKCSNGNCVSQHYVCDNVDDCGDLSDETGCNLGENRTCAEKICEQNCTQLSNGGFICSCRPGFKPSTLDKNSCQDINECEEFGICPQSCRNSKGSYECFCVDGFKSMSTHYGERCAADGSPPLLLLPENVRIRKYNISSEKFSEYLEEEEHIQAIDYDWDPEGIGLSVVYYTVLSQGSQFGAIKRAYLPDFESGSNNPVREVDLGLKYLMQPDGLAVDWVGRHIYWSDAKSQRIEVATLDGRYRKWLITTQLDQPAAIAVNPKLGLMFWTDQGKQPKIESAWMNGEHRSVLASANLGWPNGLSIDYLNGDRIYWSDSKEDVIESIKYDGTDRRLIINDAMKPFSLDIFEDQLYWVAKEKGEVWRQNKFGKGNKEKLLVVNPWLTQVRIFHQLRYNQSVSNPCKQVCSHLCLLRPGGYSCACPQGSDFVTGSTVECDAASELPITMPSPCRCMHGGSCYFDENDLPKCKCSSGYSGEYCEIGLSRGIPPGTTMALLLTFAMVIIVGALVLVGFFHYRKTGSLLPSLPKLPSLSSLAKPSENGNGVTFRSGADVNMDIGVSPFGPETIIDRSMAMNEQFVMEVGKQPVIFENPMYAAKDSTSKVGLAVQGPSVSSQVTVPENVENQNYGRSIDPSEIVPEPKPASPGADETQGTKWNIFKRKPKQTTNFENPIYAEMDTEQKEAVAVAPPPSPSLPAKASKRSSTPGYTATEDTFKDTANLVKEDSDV

CC1(C)C[C@@H]1C(=O)N/C(=C\CCCCSC[C@H](N)C(=O)O)C(=O)O [cilastatin, Cilastatin]
number of LC-NPs taken up by HK-2 cells, with vs without cilastatin (megalin [1]): significantly lower
kidney MFI of LC-NP, cilastatin-treated vs vehicle-treated mice (megalin [2]; cilastatin 4 days before LC-NP, 24 hours post-injection): significantly lower
kidney MFI of NPs, cilastatin-treated vs vehicle-treated mice (megalin [2]; mice injected with NPs): no statistical difference
